# From the supplement of paper PMC10307832
# Experiments:
# Test in all cases: relative viability (nuclei count vs DMSO), 5 days (fraction); higher = more cells survive
# BAM7 = compound: CCOC1=CC=CC=C1N=NC2=C(NN(C2=O)C3=NC(=CS3)C4=CC=CC=C4)C [BAM7]
# In short: (§1)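 Lung cancer cell lines in 1536-well plates were exposed by pinning to five library-drug doses (not always all listed) √10 apart, following an overnight hold at 37 °C. MetaXpress counted Hoechst-stained nuclei from 4× images taken after 5 days without medium change. Viability is the median ratio of treated-well to vehicle-well nuclei across plates. Plates required control CV below 25% and at least one doubling.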
# [1] = compound: CCn1c(-c2nonc2N)nc2c(C#CC(C)(C)O)ncc(OC[C@H]3CCCNC3)c21
# In short: as §1
# BAM7 + OSI-027 = compound: CCOC1=CC=CC=C1N=NC2=C(NN(C2=O)C3=NC(=CS3)C4=CC=CC=C4)C [BAM7] + COc1cccc2cc(-c3nc([C@H]4CC[C@H](C(=O)O)CC4)n4ncnc(N)c34)[nH]c12 [OSI-027] (partner 0.5 µM)
# In short: (§2)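 Relative viability divides the nuclei count in treated wells by that in vehicle wells. Lung cancer cell lines were seeded in 1536-well plates, dosed by pin tool the next day, and fixed and stained after 5 days in one step with final 0.05% Triton X-100, 1% formaldehyde and 1 ug/ml Hoechst. Dosing was a single drug or a fixed anchor-drug dose plus five library-drug doses (not always all listed) in √10 steps, and values are medians of duplicate plates imaged at 4×.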
# [2] = compound: CCn1c(-c2nonc2N)nc2c(C#CC(C)(C)O)ncc(OC[C@H]3CCCNC3)c21 + Nc1nc2[nH]cc(CCc3ccc(C(=O)N[C@@H](CCC(=O)O)C(=O)O)cc3)c2c(=O)[nH]1 [Pemetrexed] (partner 0.2 µM)
# In short: as §2
Cell Line,relative viability (BAM7; 0.5 µM),relative viability (BAM7; 5 µM),relative viability (BAM7; 15.81 µM),relative viability (BAM7; 50 µM),relative viability ([1]; 0.01 µM),relative viability ([1]; 0.03162 µM),relative viability ([1]; 0.1 µM),relative viability ([1]; 0.3162 µM),relative viability ([1]; 1 µM),relative viability (BAM7 + OSI-027; first compound 0.5 µM),relative viability (BAM7 + OSI-027; first compound 5 µM),relative viability (BAM7 + OSI-027; first compound 15.81 µM),relative viability (BAM7 + OSI-027; first compound 50 µM),relative viability ([2]; first compound 0.01 µM),relative viability ([2]; first compound 0.03162 µM),relative viability ([2]; first compound 0.1 µM),relative viability ([2]; first compound 0.3162 µM),relative viability ([2]; first compound 1 µM)
NCI-H520,1,1.02,1.01,1.09,0.905,0.921,0.779,0.753,0.665,0.305,0.263,0.293,0.356,0.565,0.686,0.577,0.523,0.352
NCI-H522,0.981,1.07,1.01,1.07,1.07,1.03,0.972,0.826,1.02,0.976,0.744,0.687,0.831,0.989,1.02,0.915,0.95,1.17
NCI-H596,0.965,1.08,0.957,1.07,0.947,0.962,0.752,0.936,1.06,0.686,0.576,0.593,0.725,0.48,–,0.443,0.47,0.5
NCI-H647,1.02,1.07,0.894,1.07,0.982,0.995,0.952,0.918,0.981,0.613,0.622,0.549,0.68,0.196,0.168,0.179,0.163,0.142
NCI-H650,0.944,1.1,0.955,1.22,0.788,0.854,0.854,0.998,0.832,0.505,0.591,0.493,0.589,0.957,0.862,0.988,1.02,0.919
NCI-H661,0.984,1.03,0.965,1.03,1.01,1.03,0.976,1.01,0.972,0.662,0.704,0.761,0.686,0.903,0.937,0.938,0.713,0.926
NCI-H838,1.03,1.04,0.946,1.06,1.01,1,0.993,0.846,0.963,0.365,0.435,0.405,0.379,0.248,0.251,0.238,0.225,0.255
NCI-H1355,0.971,0.888,0.862,0.91,0.932,0.904,0.958,0.945,0.992,0.441,0.374,0.385,0.395,0.959,0.981,1.02,1.02,1.06
NCI-H1395,0.884,1.01,0.944,1.1,0.848,0.693,0.762,0.737,0.705,0.684,0.67,0.704,0.97,0.745,0.811,0.793,0.647,0.769
NCI-H1437,0.991,1.02,0.928,1.01,0.957,0.974,1.05,0.935,1.1,1.19,0.985,0.883,0.972,0.338,0.324,0.318,0.353,0.283
NCI-H1563,0.967,1.04,0.995,1.02,1.01,0.984,0.96,0.901,0.89,0.729,0.721,0.763,0.791,0.76,0.674,0.678,0.702,0.854
NCI-H1648,0.786,0.754,0.608,0.708,0.922,0.869,0.775,0.851,0.973,0.275,0.282,–,0.283,0.62,0.756,0.759,0.664,0.723
NCI-H1650,1.02,0.884,0.826,1.04,0.941,0.994,0.877,0.841,0.833,0.542,0.512,0.498,0.73,0.361,0.352,0.369,0.359,0.348
NCI-H1651,1.02,1,1,1.05,0.941,0.935,0.95,0.924,1.01,0.657,0.758,0.7,0.653,0.653,0.605,0.597,0.574,0.572
NCI-H1666,1.03,1,1.09,1.05,1.02,0.956,1.01,0.949,0.954,0.899,0.786,0.875,0.929,0.865,0.857,0.782,0.885,0.907
NCI-H1734,1.03,1.07,1,1.1,0.95,0.978,0.893,0.932,0.86,0.606,0.657,0.602,0.647,0.389,0.419,0.385,0.391,0.431
NCI-H1755,1.02,1.03,0.978,1.02,0.989,1.03,0.973,0.903,1.01,0.81,0.698,0.689,0.719,0.476,0.439,0.419,0.393,0.383
NCI-H1792,1.02,1.06,1.07,0.873,0.887,0.636,0.939,0.908,0.932,0.694,0.71,0.553,0.624,0.759,0.684,0.632,0.782,0.687

Cell Line,relative viability (BAM7; 0.5 µM),relative viability (BAM7; 5 µM),relative viability (BAM7; 15.81 µM),relative viability (BAM7; 50 µM),relative viability ([1]; 0.01 µM),relative viability ([1]; 0.03162 µM),relative viability ([1]; 0.1 µM),relative viability ([1]; 0.3162 µM),relative viability ([1]; 1 µM),relative viability (BAM7 + OSI-027; first compound 0.5 µM),relative viability (BAM7 + OSI-027; first compound 5 µM),relative viability (BAM7 + OSI-027; first compound 15.81 µM),relative viability (BAM7 + OSI-027; first compound 50 µM),relative viability ([2]; first compound 0.01 µM),relative viability ([2]; first compound 0.03162 µM),relative viability ([2]; first compound 0.1 µM),relative viability ([2]; first compound 0.3162 µM),relative viability ([2]; first compound 1 µM)
NCI-H1793,0.963,0.838,0.899,1.03,0.936,0.879,0.751,0.859,0.942,0.271,0.267,0.25,0.233,0.864,0.917,–,0.845,0.923
NCI-H1915,1.01,1.13,0.989,0.991,0.965,1.03,0.917,0.983,0.996,0.687,0.674,0.6,0.625,0.452,0.514,0.487,0.444,0.49
NCI-H1944,0.947,0.949,0.857,1,0.941,0.922,0.919,0.935,1.01,0.39,0.439,0.434,0.445,0.618,0.622,0.657,0.565,0.631
NCI-H1975,0.823,0.898,0.775,0.903,0.932,1,0.96,0.921,0.843,0.496,0.525,0.465,0.532,0.278,0.323,0.29,0.279,0.295
NCI-H1993,0.776,0.764,0.744,0.737,0.968,0.976,0.985,0.92,0.852,0.537,0.538,0.553,0.568,0.642,0.509,0.516,0.553,0.519
NCI-H2009,1.04,1.12,0.994,1.04,1,1,1.02,0.95,0.932,0.68,0.758,0.581,0.689,1.08,1.09,1.06,1.14,1.06
NCI-H2023,0.917,0.823,0.793,1.02,0.929,0.949,0.909,0.767,0.834,0.357,0.347,0.297,0.506,0.211,0.26,0.211,0.176,0.178
NCI-H2085,0.995,0.976,0.933,1.01,0.991,0.977,1,0.937,0.97,0.733,0.571,0.52,0.678,0.934,0.88,0.914,0.873,0.992
NCI-H2087,1.18,1.14,1.11,1.13,0.931,1.05,1.04,1.06,0.915,0.818,0.552,0.441,0.559,0.614,–,0.646,0.615,0.613
NCI-H2126,0.944,0.879,0.867,0.898,0.98,0.908,0.995,0.996,1.02,0.662,0.733,0.736,0.641,0.706,0.692,0.684,0.731,0.669
NCI-H2170,0.972,0.993,0.904,0.958,0.962,1.01,0.996,0.91,0.958,0.688,0.592,0.635,0.72,0.278,0.286,0.266,0.271,0.234
NCI-H2228,1.06,0.968,0.914,1.2,0.938,1.1,1.04,0.848,0.809,0.716,0.545,0.593,0.594,0.336,0.302,0.328,0.339,0.318
NCI-H2342,0.851,0.994,0.89,0.708,0.957,0.881,0.99,0.91,0.964,0.584,0.587,0.604,0.566,0.751,0.73,0.767,0.754,0.8
NCI-H2347,1.13,1.11,1.06,1.03,1,1.03,0.956,1,0.93,0.478,0.446,–,0.4,0.46,0.399,0.385,0.432,0.39
NCI-H2405,0.989,1.13,1.03,1.08,1.05,0.934,0.973,0.969,0.993,0.623,0.686,0.608,0.683,1.03,1.12,0.964,0.96,1.13
NCI-H3122,1.02,1.09,1.01,1.01,1,0.973,1.06,0.991,1.01,1.03,1.11,1.01,1.28,0.206,0.208,0.201,0.195,0.2
PC-3 [JPC-3],0.967,1.02,0.974,0.917,1.02,1.02,1.05,0.996,1.08,0.668,0.698,0.698,0.668,1.01,–,1.03,0.946,1.17
